Experimental data: ChEMBL document CHEMBL4024727, “Synthesis and antimycobacterial screening of new thiazolyl-oxazole derivatives” (Eur J Med Chem, 2017)
≈ marks a conversion by molar mass, not a printed value.

Assays:
[1] = test system: Mycobacterium tuberculosis; experiment: Growth inhibition of Mycobacterium tuberculosis H37Ra ATCC 25177 at 30 ug/ml by XTT dye based two-fold dilution method relative to control; format: functional; conditions: read-out: GI
[2] = test system: Mycobacterium tuberculosis; experiment: Growth inhibition of Mycobacterium tuberculosis H37Ra ATCC 25177 at 10 ug/ml by XTT dye based two-fold dilution method relative to control; format: functional; conditions: read-out: GI
[3] = test system: Mycobacterium tuberculosis; experiment: Growth inhibition of Mycobacterium tuberculosis H37Ra ATCC 25177 at 3 ug/ml by XTT dye based two-fold dilution method relative to control; format: functional; conditions: read-out: GI
[4] = test system: Mycobacterium tuberculosis; experiment: Growth inhibition of Mycobacterium bovis BCG ATCC 35743 at 30 ug/ml by nitrate reductase based two-fold dilution assay relative to control; format: functional; conditions: BCG str. ATCC 35743, read-out: GI
[5] = test system: Mycobacterium tuberculosis; experiment: Growth inhibition of Mycobacterium bovis BCG ATCC 35743 at 10 ug/ml by nitrate reductase based two-fold dilution assay relative to control; format: functional; conditions: BCG str. ATCC 35743, read-out: GI
[6] = test system: Mycobacterium tuberculosis; experiment: Growth inhibition of Mycobacterium bovis BCG ATCC 35743 at 1 ug/ml by nitrate reductase based two-fold dilution assay relative to control; format: functional; conditions: BCG str. ATCC 35743, read-out: GI
[7] = test system: Mycobacterium tuberculosis; experiment: Antitubercular activity against Mycobacterium tuberculosis H37Ra ATCC 25177 dormant stage by XTT dye based two-fold dilution method; format: functional
[8] = test system: Mycobacterium tuberculosis; experiment: Antitubercular activity against Mycobacterium bovis BCG ATCC 35743 dormant stage by nitrate reductase based two-fold dilution assay; format: functional; conditions: BCG str. ATCC 35743
Escherichia coli [9] = experiment: Growth inhibition of Escherichia coli NCIM 2576 at 30 ug/ml measured after 8 hrs relative to control; format: functional; conditions: NCIM 2576, 8 h, read-out: GI
Escherichia coli [10] = experiment: Growth inhibition of Escherichia coli NCIM 2576 at 10 ug/ml measured after 8 hrs relative to control; format: functional; conditions: NCIM 2576, 8 h, read-out: GI
Escherichia coli [11] = experiment: Growth inhibition of Escherichia coli NCIM 2576 at 1 ug/ml measured after 8 hrs relative to control; format: functional; conditions: NCIM 2576, 8 h, read-out: GI
Pseudomonas fluorescens [12] = experiment: Growth inhibition of Pseudomonas fluorescens NCIM 2059 at 30 ug/ml measured after 8 hrs relative to control; format: functional; conditions: NCIM 2059, 8 h, read-out: GI
Pseudomonas fluorescens [13] = experiment: Growth inhibition of Pseudomonas fluorescens NCIM 2059 at 10 ug/ml measured after 8 hrs relative to control; format: functional; conditions: NCIM 2059, 8 h, read-out: GI
Pseudomonas fluorescens [14] = experiment: Growth inhibition of Pseudomonas fluorescens NCIM 2059 at 1 ug/ml measured after 8 hrs relative to control; format: functional; conditions: NCIM 2059, 8 h, read-out: GI
Staphylococcus aureus [15] = experiment: Growth inhibition of Staphylococcus aureus NCIM 2602 at 30 ug/ml measured after 12 hrs relative to control; format: functional; conditions: NCIM 2602, 12 h, read-out: GI
Staphylococcus aureus [16] = experiment: Growth inhibition of Staphylococcus aureus NCIM 2602 at 10 ug/ml measured after 12 hrs relative to control; format: functional; conditions: NCIM 2602, 12 h, read-out: GI
Staphylococcus aureus [17] = experiment: Growth inhibition of Staphylococcus aureus NCIM 2602 at 1 ug/ml measured after 12 hrs relative to control; format: functional; conditions: NCIM 2602, 12 h, read-out: GI
Bacillus subtilis [18] = experiment: Growth inhibition of Bacillus subtilis NCIM 2162 at 30 ug/ml measured after 12 hrs relative to control; format: functional; conditions: NCIM 2162, 12 h, read-out: GI
Bacillus subtilis [19] = experiment: Growth inhibition of Bacillus subtilis NCIM 2162 at 10 ug/ml measured after 12 hrs relative to control; format: functional; conditions: NCIM 2162, 12 h, read-out: GI
Bacillus subtilis [20] = experiment: Growth inhibition of Bacillus subtilis NCIM 2162 at 1 ug/ml measured after 12 hrs relative to control; format: functional; conditions: NCIM 2162, 12 h, read-out: GI
Escherichia coli [21] = experiment: Antibacterial activity against Escherichia coli NCIM 2576 measured after 8 hrs; format: functional; conditions: NCIM 2576, 8 h
Pseudomonas fluorescens [22] = experiment: Antibacterial activity against Pseudomonas fluorescens NCIM 2059 measured after 8 hrs; format: functional; conditions: NCIM 2059, 8 h
Staphylococcus aureus [23] = experiment: Antibacterial activity against Staphylococcus aureus NCIM 2602 measured after 12 hrs; format: functional; conditions: NCIM 2602, 12 h
Bacillus subtilis [24] = experiment: Antibacterial activity against Bacillus subtilis NCIM 2162 measured after 12 hrs; format: functional; conditions: NCIM 2162, 12 h
[25] = (§1) Growth inhibition of human HeLa cells by MTT assay; format: cell-based; conditions: HeLa cells
HeLa = experiment: as §1; format: cell-based; conditions: hela
[26] = (§2) Growth inhibition of human A549 cells by MTT assay; format: cell-based; conditions: A549 cells
A549 = experiment: as §2; format: cell-based; conditions: a549
[27] = (§3) Growth inhibition of human PANC1 cells by MTT assay; format: cell-based, PANC-1; conditions: PANC-1 cells
PANC-1 = experiment: as §3; format: cell-based; conditions: panc-1
[28] = Selectivity index, ratio of GI50 for human HeLa cells to MIC for Mycobacterium tuberculosis H37Ra ATCC 25177 dormant stage; format: toxicity, cell-based; conditions: read-out: Selectivity Index
[29] = Selectivity index, ratio of GI50 for human HeLa cells to MIC for Mycobacterium bovis BCG ATCC 35743 dormant stage; format: toxicity, cell-based; conditions: read-out: Selectivity Index
[30] = Selectivity index, ratio of GI50 for human A549 cells to MIC for Mycobacterium tuberculosis H37Ra ATCC 25177 dormant stage; format: toxicity; conditions: read-out: Selectivity Index
[31] = Selectivity index, ratio of GI50 for human A549 cells to MIC for Mycobacterium bovis BCG ATCC 35743 dormant stage; format: toxicity; conditions: read-out: Selectivity Index
[32] = Selectivity index, ratio of GI50 for human PANC1 cells to MIC for Mycobacterium tuberculosis H37Ra ATCC 25177 dormant stage; format: toxicity; conditions: PANC-1 cells, read-out: Selectivity Index
[33] = Selectivity index, ratio of GI50 for human PANC1 cells to MIC for Mycobacterium bovis BCG ATCC 35743 dormant stage; format: toxicity; conditions: PANC-1 cells, read-out: Selectivity Index

SMILES | inhibition of growth at 30 µg/mL [1] | inhibition of growth at 10 µg/mL [2] | inhibition of growth at 3 µg/mL [3] | inhibition of growth at 30 µg/mL [4] | inhibition of growth at 10 µg/mL [5] | inhibition of growth at 1 µg/mL [6] | IC50 [7] | MIC90 [7] | IC50 [8] | MIC90 [8] | inhibition of growth at 30 µg/mL (Escherichia coli [9]) | inhibition of growth at 10 µg/mL (Escherichia coli [10]) | inhibition of growth at 1 µg/mL (Escherichia coli [11]) | inhibition of growth at 30 µg/mL (Pseudomonas fluorescens [12]) | inhibition of growth at 10 µg/mL (Pseudomonas fluorescens [13]) | inhibition of growth at 1 µg/mL (Pseudomonas fluorescens [14]) | inhibition of growth at 30 µg/mL (Staphylococcus aureus [15]) | inhibition of growth at 10 µg/mL (Staphylococcus aureus [16]) | inhibition of growth at 1 µg/mL (Staphylococcus aureus [17]) | inhibition of growth at 30 µg/mL (Bacillus subtilis [18]) | further results
Cc1nc(-c2ccc(F)cc2)oc1-c1csc(Cc2cccc(Cl)c2)n1 | 96% | 92% | 93% | 97% | 95% | 98% | 230 nM | 7.38 µM (≈ 2.84 µg/mL) | 360 nM | 6.26 µM (≈ 2.41 µg/mL) | 91.2% | 86.1% | 70.5% | 93.3% | 85.7% | 72.5% | 95.6% | 82.4% | 71.7% | 93.7% | inhibition of growth at 10 µg/mL (Bacillus subtilis [19]): 85.4%; inhibition of growth at 1 µg/mL (Bacillus subtilis [20]): 79.7%; MIC (Escherichia coli [21]): 69.6 µM; MIC (Pseudomonas fluorescens [22]): 57.4 µM; MIC (Staphylococcus aureus [23]): 55.6 µM; MIC (Bacillus subtilis [24]): 53.8 µM; GI50 [25]: 168 µg/mL (≈ 436 µM); GI90 (HeLa): > 250 µg/mL; GI50 [26]: > 250 µg/mL; GI90 (A549): > 250 µg/mL; GI50 [27]: > 250 µg/mL; GI90 (PANC-1): > 250 µg/mL; selectivity ratio [28]: 59; selectivity ratio [29]: 70; selectivity ratio [30]: 88; selectivity ratio [31]: 104; selectivity ratio [32]: 88; selectivity ratio [33]: 104
Cc1nc(-c2ccccc2)oc1-c1csc(-c2ccccc2)n1 | 93% | 71% | 56% | 92% | 63% | 63% | 8660 nM | 87.5 µM (≈ 27.9 µg/mL) | 7340 nM | 85.9 µM (≈ 27.4 µg/mL) | 98.2% | 94.2% | 91.2% | 97.7% | 93.4% | 88.9% | 94.2% | 89.9% | 85.7% | 96.8% | inhibition of growth at 10 µg/mL (Bacillus subtilis [19]): 93.2%; inhibition of growth at 1 µg/mL (Bacillus subtilis [20]): 91.3%; MIC (Escherichia coli [21]): 7.54 µM; MIC (Pseudomonas fluorescens [22]): 13.8 µM; MIC (Staphylococcus aureus [23]): 39.3 µM; MIC (Bacillus subtilis [24]): 7.91 µM; GI50 [25]: 123 µg/mL (≈ 387 µM); GI90 (HeLa): > 250 µg/mL; GI50 [26]: > 250 µg/mL; GI90 (A549): > 250 µg/mL; GI50 [27]: > 250 µg/mL; GI90 (PANC-1): > 250 µg/mL; selectivity ratio [28]: 4; selectivity ratio [29]: 5; selectivity ratio [30]: 9; selectivity ratio [31]: 9; selectivity ratio [32]: 9; selectivity ratio [33]: 9
Cc1nc(-c2ccccc2)oc1-c1csc(Cc2ccc(Cl)cc2)n1 | 98% | 93% | 92% | 97% | 97% | 96% | 350 nM | 7.19 µM (≈ 2.64 µg/mL) | 320 nM | 5.8 µM (≈ 2.13 µg/mL) | 97.9% | 84.5% | 78.7% | 95% | 87.3% | 81% | 92.4% | 85.6% | 79.1% | 90.4% | inhibition of growth at 10 µg/mL (Bacillus subtilis [19]): 85.2%; inhibition of growth at 1 µg/mL (Bacillus subtilis [20]): 74.2%; MIC (Escherichia coli [21]): 18.3 µg/mL; MIC (Pseudomonas fluorescens [22]): 18 µg/mL; MIC (Staphylococcus aureus [23]): 22.7 µg/mL; MIC (Bacillus subtilis [24]): 27.6 µg/mL; GI50 [25]: 124 µg/mL (≈ 339 µM); GI90 (HeLa): > 250 µg/mL; GI50 [26]: > 250 µg/mL; GI90 (A549): > 250 µg/mL; GI50 [27]: > 250 µg/mL; GI90 (PANC-1): > 250 µg/mL; selectivity ratio [28]: 47; selectivity ratio [29]: 58; selectivity ratio [30]: 95; selectivity ratio [31]: 117; selectivity ratio [32]: 95; selectivity ratio [33]: 117
